Measurements from US11484529B2, “Desmethylanethole trithione derivatives for the treatment of diseases linked to mitochondrial reactive oxygen species (ROS) production” (OP2 Drugs, priority 2017, dated 2022).

What was measured:
[1] = test system: isolated rat heart mitochondria; test: Mitochondrial ATP synthesis (phosphorylation rate, pH electrode); type: biochemical
Description: Male Wistar rats (250-325 g; obtained from Janvier Labs, Le Genest-Saint-Isle, France) were killed by stunning and cervical dislocation, and the heart was quickly removed and washed in cold isolation medium containing 100 mM sucrose, 180 mM KCl, 50 mM Tris, 5 mM MgCl2, 10 mM EDTA, and 0.1% (w/v) defatted BSA (pH 7.2).
Isolation of heart mitochondria was performed in a cold chamber. Before homogenization, hearts (about 1.5 g) were minced with scissors and treated for 5 minutes in 5 mL of the same medium supplemented with protease (2 mg of bacterial proteinase type XXIV per mL of isolation buffer) with stirring. The tissue suspension was poured into a 50-mL glass Potter homogenizer, diluted with 20 mL of isolation buffer, then homogenized for 3 minutes using a motorized Teflon pestle. The homogenate was filtered through bolting cloth (Sefar Nitex) to remove debris, and centrifuged at 8,000 g for 10 minutes. The resulting pellet was rinsed with 5 mL of isolation buffer, resuspended in 25 ml of the same buffer, then subjected to low speed centrifugation (400 g) for 8 minutes. […] Protein concentration was determined by the Bradford method (Sigma, kit # B6916) using BSA as standard. […]
ATP synthesis was measured under the same conditions using a high sensitivity pH electrode (Metrohm) as previously described (Gouspillou et al., 2014. Aging Cell. 13(1):39-48).

[2] = test system: chronic hypoxic rats and monocrotaline-treated rats; test: Pulmonary hypertension rat models (chronic hypoxia, monocrotaline); type: in vivo
Description: Male Wistar rats (300-400 g) were separated into 3 groups and used 4 weeks later: • the first group (control or normoxic rats—N rats) was housed in ambient room air; • the second group (chronic hypoxic rats—CH rats) was exposed to chronic hypoxia for 3 weeks in a hypobaric chamber (50 kPa); and • the third group (MCT rats) was injected with a single intraperitoneal dose of monocrotaline at a dose of 60 mg/kg. MCT (Sigma, St Quentin Fallavier, France) was dissolved in an equal volume of HCl (1 M) and NaOH (1 M).
In each group, some animals were treated with AOL (Sulfarlem, EG Labo Eurogenerics. Crushed tablets mixed with food, fed ad libitum) and some other animals were untreated. Eaten food was weighed every day to estimate the AOL dose administered. 10 mg/kg/day was thus administered during the 3 weeks of experiment for the second and third groups.
Pulmonary hypertension was assessed by measuring both the mean pulmonary arterial pressure (mPAP) and right ventricle hypertrophy. To measure PAP, N, CH and MCT rats were anesthetized with pentobarbital sodium (Centravet) by intraperitoneal injection (60 mg/kg) and mPAP was measured, in closed-chest rats, through a catheter inserted in the right jugular vein, then through the right atria and the right ventricle into the pulmonary artery, and attached to a Baxter Uniflow gauge pressure transducer. Right ventricle hypertrophy was estimated by the ratio of right ventricle (RV) to left ventricle plus septum (LV+S) weight (Fulton index).
Pulmonary arteries (PA) remodeling was assessed by measuring the percentage of the PA medial thickness from sections of paraffin-embedded lung. Lung sections were first stained with hematoxylin and eosin (VWR) according to common histological procedure.

[3] = test system: isolated perfused rat heart; test: Global ischemia-reperfusion of isolated perfused rat heart (Langendorff); conditions: 10 μM AOL pretreatment, 30 min ischemia
Description: The consequences of 30 minutes' global ischemia followed by 120 minutes' reperfusion (FIG. 11) on contractility and tissue viability were studied on isolated perfused rat heart pretreated or not (control vehicle) with 10 μM AOL.
All procedures conformed to the UK Animals (Scientific Procedures) Act 1986 and the Guide for the Care and Use of Laboratory Animals published by the National Institutes of Health (NIH Publication No. 85-23. revised 1996). Male Wistar rats (250-300 g) were anesthetized by 3% isoflurane, heparinized and euthanized by a lethal IP injection of pentobarbital (130 mg/kg). […] Langendorff heart perfusions were performed (Garlid et al., 2006. Am. J. Physiol. Heart Circ. Physiol. 291(1):H152-60) and contractility was assessed by continuous measurement of the rate pressure product (RPP) thanks to a balloon placed in the left ventricle and connected to a pressure transducer. […]
At the end of the reperfusion period, hearts were stained with triphenyltetrazolium chloride (TTC): hearts were perfused for 7 minutes at 13 mL/min with a 12% (w/v) TTC solution in order to get a 1% final concentration in the heart. […] The surface of the necrotic and at-risk areas of each side were determined on each photography by planimetry (AlphaEase v5.5), and infarct size was expressed as a percentage of the total cross-sectional area of the heart, since total heart was subjected to ischemia.

Compound | concentration that completely abolishes phosphorylation rate [1] | concentrations that do not modify ATP synthesis [1] | Fulton index (right ventricular hypertrophy) ([2]; 10 mg/kg/day in food) | reduction of pulmonary arteries diameter (PA remodeling) ([2]; CH rats, 10 mg/kg/day) | mean pulmonary arterial pressure ([2]; MCT rats, 10 mg/kg/day in food, 3 weeks) | mean pulmonary arterial pressure ([2]; normoxic (N) rats) | infarcted tissue rescued (TTC staining) ([3]; 120 min reperfusion) | heart contractility (RPP) relative to control hearts ([3]; after 2 hours of reperfusion)
Oc1ccc(-c2cc(=S)ss2)cc1 [AOX, 5-(4-hydroxyphenyl)-3H-1,2-dithiole-3-thione] | 60 µM | lower than 20 μM | – | – | – | – | – | –
COc1ccc(-c2cc(=S)ss2)cc1 [AOL, 5-(4-methoxyphenyl)-3H-1,2-dithiole-3-thione] | – | – | no effect on the Fulton index | 30% | decreased in MCT rats | no significant effect on the control group | about 50% | about three times higher than control hearts
